Assay results from patent US20250031733A1, “Mint Flavor Compositions” (The Procter & Gamble Company, priority 2020, published 2025).

Tests used:
[1] = Comparison of cooling attributes of (−)-menthol and racemic menthol in toothpaste (Crest Cavity formulation); type: in vivo
Excerpt: The following data helps support the use of racemic menthol to reduce costs of mint flavor compositions herein described. From internal unpublished research, Table B compares replacing (−)-menthol with a racemic menthol in a 1:1 in a toothpaste formulation. Such a direct replacement is not preferred given the reduced cooling profile and olfactory differences; however, a portion of L-menthol is preferably replaced by racemic-menthol to gain cost efficiency while minimizing impact to the overall mint flavor profiles.
This value represents the concentration of a coolant where 50% of its maximal cooling is observed.

[2] = Expert sensory testing of racemic menthol vs (−)-menthol in toothpaste (CREST Cavity) with standard spearmint flavor; type: in vivo
Protocol: In separate, unpublished internal experiments, perceptual experiences of racemic menthol are quantified via expert sensory testing. The use of a standard spearmint flavor (minimizing extra menthol contribution) compared racemic menthol to (−)-menthol in a toothpaste formulation (CREST Cavity). There are several sensory observations taken from these experiments. […] These aromatic notes appear during brushing and disappear after 5-10 minutes post expectoration and are more pronounced as concentrations increase.

**Q.** For `CC1CCC(C(C)C)C(O)C1` (racemic) [Racemic Menthol], which “Potency compared to L-Menthol” value [1] is on record?
**A.** ~0.65-0.7x

**Q.** What about the “Time Point at Maximum Cooling” value [1] of the same molecule?
**A.** ~1 min

**Q.** And the “Maximum Cooling (0-60 scale)” value ([1]; 60 = greatest amount of cooling, 0 = least)?
**A.** 35

**Q.** And the “EC 50” value ([1]; concentration of coolant where 50% of maximal cooling is observed)?
**A.** 1,250 to 1,500 parts per million

**Q.** What about the “Maximum Longevity” value ([1]; cooling) of the same molecule?
**A.** Up to 20 minutes

**Q.** And the “less potent than (−)-menthol for cooling” value [2]?
**A.** 25-30%
